Assay results taken from patent US10517889B2, “Modulators of SMAD7 expression” (Ionis Pharmaceuticals, Inc., priority 2017, dated 2019).
Strand notation (5' to 3'): a small letter for the sugar, then the base; units joined by * are phosphorothioate-linked, units joined directly phosphodiester-linked; [ ] holds rarer units or linkages, { } end groups; capitals alone tell only the bases. k = constrained ethyl (cEt); [5mC] = 5-methylcytosine; d = 2'-deoxy (DNA)

Test system: human SMAD7 mRNA
Experiment: Antisense inhibition of human SMAD7 mRNA expression in Hep3B cells by 3-10-3 cEt gapmers, 10,000 nM, electroporation (Example 2)
Format: cell-based
Settings: approximately 24 hours
Procedure, shortened: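 Hep3B, 20,000 cells/well; electroporation, 10,000 nM ASO; ~24 h. Readout: SMAD7 mRNA by qRT-PCR (RTS5062), RIBOGREEN-normalised; % inhibition vs untreated.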

[1] = Hep3B cells, 10,000 nM antisense oligonucleotide, electroporation, RT-PCR primer probe set RTS5062, relative to untreated control cells
[2] = Hep3B cells, electroporation with 10,000 nM antisense oligonucleotide, RTS5062, percent inhibition of SMAD7 mRNA relative to untreated control cells
[3] = Hep3B cells, electroporation with 10,000 nM antisense oligonucleotide, SMAD7 mRNA by RT-PCR (RTS5062), relative to untreated control cells
[4] = Hep3B cells, electroporation with 10,000 nM antisense oligonucleotide, primer probe set RTS5062, relative to untreated control cells
[5] = SMAD7 mRNA, Hep3B cells, 10,000 nM antisense oligonucleotide, electroporation, primer probe set RTS5062, relative to untreated control cells
[6] = SMAD7 mRNA, Hep3B cells, electroporation with 10,000 nM antisense oligonucleotide, primer probe set RTS5062, relative to untreated control cells
[7] = Hep3B cells, electroporation, 10,000 nM antisense oligonucleotide, RTS5062, relative to untreated control cells

798841 (k[5mC]*kT*kG*dA*d[5mC]*dT*d[5mC]*dT*dT*dG*dT*dT*dG*kT*k[5mC]*k[5mC]; antisense) [compound 798841]
% Inhibition [1]: 0%

799623 (kT*kA*k[5mC]*dA*dA*dT*d[5mC]*dT*d[5mC]*d[5mC]*dT*dG*dG*kA*kA*kG; antisense) [compound 799623]
% Inhibition [2]: 45%

799966 (antisense kG*kT*kG*dG*dA*dA*dG*dG*d[5mC]*dT*dG*dA*d[5mC]*k[5mC]*kT*kG) [compound 799966]
% Inhibition [3]: 35%

799604 (k[5mC]*kA*kT*d[5mC]*dA*d[5mC]*d[5mC]*dT*d[5mC]*d[5mC]*d[5mC]*d[5mC]*dT*k[5mC]*k[5mC]*kA; antisense) [compound 799604]
% Inhibition [2]: 0%

830016 (antisense kG*kG*kT*dG*d[5mC]*d[5mC]*d[5mC]*dA*dA*d[5mC]*d[5mC]*d[5mC]*dT*kT*k[5mC]*kA) [compound 830016]
% Inhibition [3]: 32%

830133 (antisense kA*k[5mC]*kA*dA*dT*d[5mC]*dT*d[5mC]*d[5mC]*dT*dG*dG*dA*kA*kG*k[5mC]) [compound 830133]
% Inhibition [3]: 26%

798746 (antisense kT*kG*kG*dA*dG*d[5mC]*dA*dG*d[5mC]*dA*dG*d[5mC]*dT*k[5mC]*k[5mC]*kA) [compound 798746]
% inhibition of SMAD7 mRNA expression [4]: 30%

772591 (kA*kG*kT*dG*dT*dG*dA*d[5mC]*d[5mC]*dG*dA*dT*d[5mC]*k[5mC]*k[5mC]*k[5mC]; antisense) [compound 772591]
% Inhibition [5]: 60%

798965 (antisense kT*kG*k[5mC]*d[5mC]*d[5mC]*d[5mC]*dT*dT*d[5mC]*dT*dT*d[5mC]*d[5mC]*kA*kA*kA) [compound 798965]
% inhibition of SMAD7 mRNA expression [4]: 43%

830008 (antisense kT*kA*kG*dA*dG*dG*d[5mC]*dT*d[5mC]*dT*dA*dT*dT*kT*k[5mC]*kT) [compound 830008]
% Inhibition [6]: 0%

800069 (antisense k[5mC]*kA*kT*dG*dG*d[5mC]*dG*dG*dA*dA*dG*dA*dT*kG*kG*kG) [compound 800069]
% Inhibition [1]: 25%

799076 (antisense kA*kG*k[5mC]*dA*dG*dA*dT*dG*dG*d[5mC]*d[5mC]*dA*dA*kA*kA*kA) [compound 799076]
% Inhibition [4]: 34%

799338 (kT*kT*kA*dT*dA*dG*d[5mC]*dA*d[5mC]*dG*d[5mC]*d[5mC]*dT*k[5mC]*kT*k[5mC]; antisense) [compound 799338]
% inhibition of SMAD7 mRNA expression [4]: 0%

829811 (kT*k[5mC]*k[5mC]*dA*dT*d[5mC]*dG*dG*dG*dT*dA*dT*d[5mC]*kT*kG*kG; antisense) [compound 829811]
% Inhibition [6]: 0%

830182 (antisense kG*kT*kG*dT*d[5mC]*d[5mC]*dT*dT*d[5mC]*dA*dG*dA*dA*k[5mC]*kA*k[5mC]) [compound 830182]
% Inhibition [3]: 0%

799550 (kA*kG*k[5mC]*dT*d[5mC]*d[5mC]*dT*dA*d[5mC]*dT*dG*dT*dT*kG*kG*k[5mC]; antisense) [compound 799550]
% Inhibition [2]: 50%

799539 (k[5mC]*k[5mC]*k[5mC]*dG*dT*d[5mC]*d[5mC]*dA*d[5mC]*dG*dG*dA*dA*k[5mC]*kG*kG; antisense) [compound 799539]
% inhibition of SMAD7 mRNA expression [7]: 41%

830006 (antisense kA*k[5mC]*kT*d[5mC]*dA*d[5mC]*d[5mC]*dA*dG*dT*dT*dG*dG*kT*kT*kT) [compound 830006]
% Inhibition [6]: 0%

799383 (antisense k[5mC]*kA*k[5mC]*dA*dA*dA*dA*dA*d[5mC]*d[5mC]*dA*dA*dG*kG*kT*kT) [compound 799383]
% inhibition of SMAD7 mRNA expression [4]: 40%

799289 (antisense kT*kA*kT*dT*dA*dA*dT*dG*dG*dT*d[5mC]*dT*dG*k[5mC]*kT*k[5mC]) [compound 799289]
% Inhibition [2]: 61%

799323 (antisense k[5mC]*k[5mC]*kA*dG*dG*dA*dG*dG*dG*dT*dA*dT*dG*k[5mC]*kA*k[5mC]) [compound 799323]
% inhibition of SMAD7 mRNA expression [4]: 60%

799821 (antisense k[5mC]*k[5mC]*k[5mC]*d[5mC]*dA*dG*dA*dA*dA*dA*d[5mC]*dA*dG*k[5mC]*k[5mC]*k[5mC]) [compound 799821]
% Inhibition [2]: 17%

799332 (kG*kG*kG*dA*dA*dT*dG*d[5mC]*d[5mC]*d[5mC]*dT*dT*dT*kG*kA*kG; antisense) [compound 799332]
% Inhibition [3]: 45%

829752 (antisense k[5mC]*k[5mC]*kG*d[5mC]*dA*dG*d[5mC]*dT*d[5mC]*dG*d[5mC]*d[5mC]*dT*k[5mC]*k[5mC]*kT) [compound 829752]
% Inhibition [5]: 27%

799428 (antisense kG*kA*k[5mC]*d[5mC]*dA*d[5mC]*dA*d[5mC]*dA*dG*dT*dA*d[5mC]*k[5mC]*kT*kA) [compound 799428]
% Inhibition [3]: 47%

799950 (antisense kG*k[5mC]*kA*d[5mC]*dA*dA*dG*dT*d[5mC]*dA*d[5mC]*dT*dG*kG*k[5mC]*k[5mC]) [compound 799950]
% Inhibition [1]: 0%

798685 (antisense kG*kA*kG*dG*d[5mC]*dG*dA*dG*dG*dA*dG*dA*dA*kA*kA*kG) [compound 798685]
% inhibition of SMAD7 mRNA expression [4]: 58%

799466 (antisense kG*kA*k[5mC]*dA*dG*dA*dA*dG*d[5mC]*dT*d[5mC]*dT*dA*kG*kG*k[5mC]) [compound 799466]
% Inhibition [3]: 53%

829884 (antisense kT*kG*k[5mC]*dA*dG*dG*d[5mC]*dT*dG*dT*dA*d[5mC]*dG*k[5mC]*k[5mC]*kT) [compound 829884]
% Inhibition [6]: 24%

829782 (antisense kA*kT*k[5mC]*d[5mC]*dG*dG*d[5mC]*d[5mC]*dA*d[5mC]*d[5mC]*dT*dG*kA*kA*k[5mC]) [compound 829782]
% Inhibition [5]: 36%

829900 (antisense k[5mC]*kA*k[5mC]*dG*dG*dG*d[5mC]*dA*dG*d[5mC]*dT*dG*d[5mC]*kT*kG*kA) [compound 829900]
% Inhibition [6]: 0%

799620 (kT*kA*kA*d[5mC]*dG*dA*d[5mC]*d[5mC]*dA*dG*dG*d[5mC]*d[5mC]*kT*kG*kT; antisense) [compound 799620]
% inhibition of SMAD7 mRNA expression [7]: 31%

829726 (antisense k[5mC]*kT*k[5mC]*d[5mC]*dG*dT*dG*dG*d[5mC]*dA*dT*dG*d[5mC]*kG*k[5mC]*k[5mC]) [compound 829726]
% Inhibition [5]: 41%

799443 (antisense kT*k[5mC]*kA*dT*dG*d[5mC]*dT*dG*dA*dT*dT*dT*dT*kA*kA*kA) [compound 799443]
% inhibition of SMAD7 mRNA expression [4]: 24%

799122 (antisense k[5mC]*kT*kG*dG*d[5mC]*d[5mC]*dT*dA*dA*dT*dA*dG*d[5mC]*kA*kG*kA) [compound 799122]
% Inhibition [4]: 29%

798732 (antisense kG*kG*kA*dT*dG*dG*dT*dG*dG*dT*dG*dA*d[5mC]*k[5mC]*kT*kT) [compound 798732]
% inhibition of SMAD7 mRNA expression [4]: 51%

829910 (antisense kG*kA*kG*dT*dT*dT*dG*d[5mC]*dA*dT*dG*dA*dA*kA*kA*kG) [compound 829910]
% Inhibition [6]: 49%

799047 (antisense kT*kT*kG*dA*dT*dG*dA*dG*dG*dG*dA*dG*dA*kG*kG*kA) [compound 799047]
% inhibition of SMAD7 mRNA expression [4]: 63%

829926 (k[5mC]*kA*kT*dG*d[5mC]*dT*d[5mC]*dA*dT*dT*dG*dA*dG*k[5mC]*kT*kA; antisense) [compound 829926]
% Inhibition [6]: 24%

799748 (antisense kG*k[5mC]*kT*dG*dA*dA*dA*dA*dA*dG*dT*d[5mC]*dA*kT*kG*kA) [compound 799748]
% Inhibition [2]: 51%

790508 (k[5mC]*kA*k[5mC]*d[5mC]*dA*d[5mC]*dG*d[5mC]*dA*d[5mC]*d[5mC]*dA*dG*kT*kG*kT; antisense) [compound 790508]
% Inhibition [5]: 0%

772712 (kA*k[5mC]*k[5mC]*d[5mC]*dA*dT*dA*dG*dA*dA*dA*dA*dA*kA*kA*k[5mC]; antisense) [compound 772712]
% inhibition of SMAD7 mRNA expression [4]: 0%

829739 (antisense kT*kG*k[5mC]*dT*dA*dA*dG*dG*dA*dG*d[5mC]*dG*dA*kA*k[5mC]*kA) [compound 829739]
% Inhibition [5]: 44%

799601 (kG*kA*kA*dT*dA*d[5mC]*dA*d[5mC]*dT*dG*d[5mC]*dA*d[5mC]*k[5mC]*kA*kA; antisense) [compound 799601]
% inhibition of SMAD7 mRNA expression [7]: 48%

799807 (antisense kA*kA*kA*dT*dT*dG*dG*dA*dA*dT*dT*dG*dA*kG*kA*k[5mC]) [compound 799807]
% Inhibition [2]: 37%

799120 (antisense kA*kA*kT*dA*dG*d[5mC]*dA*dG*dA*dG*d[5mC]*dT*dT*kA*kA*k[5mC]) [compound 799120]
% Inhibition [4]: 45%
